{
  "source": "paper PMC10846744",
  "about": "“Cathelicidin peptide analogues inhibit EV71 infection through blocking viral entry and uncoating” (PLOS Pathogens, 2024)",
  "key": {"[1]": {"test_system": "coxsackievirus B5 (CVB5)", "assay": "CVB5 infection inhibition on RD cells (cell viability)", "assay_type": "cell-based", "conditions": "for inhibition of CVB5 infection: 0.3, 0.9, or 1.5 μM peptide pre-incubated with virus, RD cell viability 24 h.p.i (S1F Fig); for inhibition of CVB5 infection, higher concentrations: 3, 6, or 12 μM peptide pre-incubated with virus, RD cell viability 24 h.p.i (S1H Fig)", "procedure": "(§1) Synthetic peptides were purchased from Bioyears Co. Ltd. (Wuhan, China) with purity of more than 95% and dissolved in PBS. To test their inhibitory effects, the EV71 virus (MOI = 1) was incubated with the indicated amount of peptide at room temperature for 1 hr before the mixture was added to RD cells and maintained throughout the experiment. Cell viability, viral titer, or viral protein expression was determined 24 h.p.i. For the time-of-addition experiment, viruses were either pre-incubated with peptides (for the -2 and -1 time points), the mixture was added to the cells simultaneously (for 0 time point), or peptides were added after virus infection (for 1, 2, 4 and 7 h time points) and the virus/peptide was maintained in the culture before cell viability, viral titer, or viral protein expression was determined 24 h.p.i. The TCID50 of the virus was calculated according to the Reed-Muench method.\n(§2) Cell viability assays were carried out using the Cell Titer-Glo Luminescent Cell Viability Assay Kit (Promega, Madison, WI) following the manufacturer’s instructions. Luminescence signals were measured using a BioTek Neo2 microplate reader.\n(§3) (A-D) Cell viability of RD cells treated with the indicated amount of DL-37 (A), LL-37 (B), LL-18 (C), or FF-18 (D) was plotted against peptide concentration, and the cytotoxicity was determined. (E) EV71 virus pre-incubated with indicated amounts of DL-37, and the cell viability was determined 24 h.p.i. ***, P<0.001. (F-G) CVB5 (F) or Echo7 (G) virus pre-incubated with 0.3, 0.9, or 1.5 μM of peptides were used to infect RD cells. Cell viability was determined 24 h.p.i. ***, P<0.001. (H-I) CVB5 (H) or Echo7 (I) virus pre-incubated with 3, 6, or 12 μM of peptides were used to infect RD cells. Cell viability was determined 24 h.p.i. ***, P<0.001. (TIF) Click here for additional data file."}, "[2]": {"test_system": "EV71 subgenomic replicon", "assay": "EV71 subgenomic replicon (SGR) Renilla luciferase assay", "assay_type": "cell-based, enterovirus 71 (EV71)", "conditions": "RD cells transfected with SGR RNA, 1.5 μM peptide for 3 or 6 hrs", "procedure": "Fig 3 LL-18 and FF-18 inhibit viral attachment and internalization. (A) EV71 virus (MOI = 1) was pre-incubated with 1.5 μM LL-18, FF-18 or 12 μM 12s before they were used to incubate with RD cells at 4°C for 1 hr. Viral RNA was then determined with q-RT-PCR. Values are normalized to vehicle treated cells. ***, P<0.001. (B) EV71 virus (MOI = 1) was pre-incubated with 1.5 μM LL-18, FF-18 or 12 μM 12s before they were used to incubate with RD cells at 4°C for 1 hr followed by 37°C incubation for 1 hr. Viral RNA was then determined with q-RT-PCR. Values are normalized to vehicle treated cells. ***, P<0.001. (C) Diagram of EV71 subgenomic replicon. Part of the structural genes was replaced with a Renilla luciferase reporter gene. (D) RD cells transfected with EV71 SGR RNA were treated with 1.5 μM LL-18 or FF-18 for 3 hrs (left panel) or 6 hrs (right panel) before luciferase activity was measured. ns, not significant. […]\nFull-length NanoLuc-EV71 reporter viruses and subgenomic EV71 replicon (SGR) were described previously. […] Nano luciferase and Renilla luciferase were measured with Nano-Glo or Renilla luciferase assay system from Promega (Madison, WI). Luminescence signals were measured using a BioTek Neo2 microplate reader."}, "[3]": {"test_system": "EV71 virus", "assay": "Virus internalization assay (q-RT-PCR, immunoblotting)", "assay_type": "cell-based, enterovirus 71 (EV71)", "conditions": "1.5 μM peptide (q-RT-PCR, MOI = 1) or 3 μM (immunoblotting, MOI = 10); RD cells 4°C 1 hr then 37°C 1 hr", "procedure": "Fig 3 LL-18 and FF-18 inhibit viral attachment and internalization. (A) EV71 virus (MOI = 1) was pre-incubated with 1.5 μM LL-18, FF-18 or 12 μM 12s before they were used to incubate with RD cells at 4°C for 1 hr. Viral RNA was then determined with q-RT-PCR. Values are normalized to vehicle treated cells. ***, P<0.001. (B) EV71 virus (MOI = 1) was pre-incubated with 1.5 μM LL-18, FF-18 or 12 μM 12s before they were used to incubate with RD cells at 4°C for 1 hr followed by 37°C incubation for 1 hr. Viral RNA was then determined with q-RT-PCR. Values are normalized to vehicle treated cells. ***, P<0.001. (C) Diagram of EV71 subgenomic replicon. […] (D) RD cells transfected with EV71 SGR RNA were treated with 1.5 μM LL-18 or FF-18 for 3 hrs (left panel) or 6 hrs (right panel) before luciferase activity was measured. ns, not significant.\nViral binding and internalization assays were performed as previously described. […] Cells were then washed extensively with ice-cold PBS, and the viruses retained were analyzed with real-time PCR. […]\nSupplementary file ppat.1011967.s002.tif: S2 Fig LL-18 and FF-18 inhibit viral attachment and internalization. […] Cells were then washed extensively and kept cultured for 24 hrs before viral VP1 expression was determined with immunoblotting. […] Cells were then washed extensively and kept cultured for 24 hrs before viral VP1 expression was determined with immunoblotting. […]"}, "[4]": {"test_system": "Echovirus 7 (Echo7)", "assay": "Echo7 infection inhibition on RD cells (cell viability)", "assay_type": "cell-based", "conditions": "for inhibition of Echo7 infection: 0.3, 0.9, or 1.5 μM peptide pre-incubated with virus, RD cell viability 24 h.p.i (S1G Fig); for inhibition of Echo7 infection, higher concentrations: 3, 6, or 12 μM peptide pre-incubated with virus, RD cell viability 24 h.p.i (S1I Fig)", "procedure": "as §1, §2, §3"}},
  "note": "Where no end group is shown, it is not given here.",
  "data": [
    {"sequence": "FRKSKEKIGKFFKRIVQRIFDFLRNLV [FF-18]", "values": [
      {"measurement": "inhibition of CVB5 infection", "setting": "[1]", "result": "neither LL-18 nor FF-18 could inhibit CVB5 or Echo 7 infection"},
      {"measurement": "inhibition of CVB5 infection, higher concentrations", "setting": "[1]", "result": "could still not inhibit CVB5 or Echo 7 infection"},
      {"measurement": "inhibition of EV71 SGR luciferase (viral translation or replication)", "setting": "[2]", "result": "no inhibition"},
      {"measurement": "inhibition of EV71 internalization", "setting": "[3]", "result": "strong inhibition"},
      {"measurement": "inhibition of Echo7 infection", "setting": "[4]", "result": "neither LL-18 nor FF-18 could inhibit CVB5 or Echo 7 infection"},
      {"measurement": "inhibition of Echo7 infection, higher concentrations", "setting": "[4]", "result": "could still not inhibit CVB5 or Echo 7 infection"}
    ]},
    {"sequence": "FRKSKEKIGKLFKRIVQRILDFLRNLV [LL-18]", "values": [
      {"measurement": "inhibition of CVB5 infection", "setting": "[1]", "result": "neither LL-18 nor FF-18 could inhibit CVB5 or Echo 7 infection"},
      {"measurement": "inhibition of CVB5 infection, higher concentrations", "setting": "[1]", "result": "could still not inhibit CVB5 or Echo 7 infection"},
      {"measurement": "inhibition of EV71 SGR luciferase (viral translation or replication)", "setting": "[2]", "result": "no inhibition"},
      {"measurement": "inhibition of EV71 internalization", "setting": "[3]", "result": "strong inhibition"},
      {"measurement": "inhibition of Echo7 infection", "setting": "[4]", "result": "neither LL-18 nor FF-18 could inhibit CVB5 or Echo 7 infection"},
      {"measurement": "inhibition of Echo7 infection, higher concentrations", "setting": "[4]", "result": "could still not inhibit CVB5 or Echo 7 infection"}
    ]}
  ]
}
